Laboratory results from BigSolDB 2.1.

Settings: in water

O=C(O)CCCC(=O)O
Settings	solubility (mole fraction)
288.05 K	0.125
292.95 K	0.151
297.85 K	0.176
303.25 K	0.204
308.05 K	0.232
312.95 K	0.26
318.05 K	0.297
322.25 K	0.328
326.75 K	0.361
330.85 K	0.4
